Measurements reported in patent publication US7833991B2, “Amine compound and use thereof” (Kureha Corporation, priority 2002, dated 2010).
Read-outs that look alike come from different tables or passages of the source.

How the values were obtained:
[1] = system: HIV-1IIIB infected MT-4 cells; experiment: Antiviral activity in HIV-1IIIB infected MT-4 cells, MTT method (Test Examples 1 and 5); format: cell-based
Experimental: Immediately after infection, HIV-1IIIB infected MT-4 cells (3.0×10^4/well, MOI (Multiplicity of infection): 0.01) were added to a 96-well microtiter plate together with the test compounds having different concentrations. The cells were cultured in a carbon dioxide incubator at 37° C. for 5 days, and the number of living cells was measured in accordance with the MTT (tetrazolium) method (Pawels, et al., Journal of Virology Method, 20, 309-321 ([…])). The antiviral activity is represented by the concentration required for inhibition of cell disorder due to HIV by 50% (EC50: 50% Effective Concentration) (μM), and the results are shown in Table 2.
(§1) Compounds of the present invention having various substituted and unsubstituted heterocyclic rings for the substituent A2 of formula (1) were tested for antiviral (anti-HIV) activity as in Test Example 1 and for CXCR4 activity as in Test Example 2. The compounds, various substituents of the compounds, antiviral activity represented by the concentration required for inhibition of all disorder due to HIV injection by 50% (EC50: 50% Effective Concentration, μM), and CXCR4 activity calculated as a rate of inhibition of the binding between radioactive ligands and CXCR4 receptors by a test material (a binding-inhibition % at 0.1 μM) are shown in Table 5: […]

CXCR4 = molecular target: T1, CXCR4 (Homo sapiens, UniProt P61073); experiment: Inhibition of 125I-SDF-1α binding to receptors CXCR4 on MT-4 cells (Test Examples 2 and 5); conditions: binding-inhibition % at 0.1 μM
T1 construct: endogenous in cells; host or cells: MT-4 cells
Experimental: MT-4 cells (5×10^6/0.2 ml/well) were cultured on a 24-well microtiter plate. After the cells were incubated for 24 hours at 37° C. in a carbon dioxide gas incubator, a culture medium was replaced with a buffer solution (0.1% BSA-containing RPMI-1640). Together with a ligand ^125I-SDF-1α, (specific activity: 2,200 Ci/mmol; available from Daiichi Pure Chemicals Co., Ltd. (Tokyo)), test materials with various concentrations were subjected to a binding reaction for 2 hours under ice-cooling. […] Then, a rate of inhibition of the binding between radio-active ligands and receptors CXCR4 by a test material was calculated (a binding-inhibition % at 0.1 μM).
as §1

ICR mice = experiment: Acute toxicity in mice, single administration via tail vein (Test Example 3); format: in vivo; conditions: ICR mice (male), 2.5 mg/kg once
Experimental: The aforementioned compound was examined for acute toxicity. Specifically, 7-week-old ICR mice (male) were divided into several groups (4 or 5 mice in each group), and the mice were bred for 1 week for habituation. Subsequently, each of the compounds of Examples was dissolved in distilled water or physiological saline, and the solution was administered to the mice via tail vein (dose: 2.5 mg/kg) once. Then, dead mice were counted.

[2] = Human immunodeficiency virus 1, MT4, 120 h, concentration required for inhibition of cell disorder due to HIV by 50%, MT-4 cells, MOI 0.01, 5 days, MTT method, read-out: EC50
[3] = 125I-SDF-1α, MT-4 cells, 2 hours under ice-cooling, read-out: Inhibition rate (%)
[4] = Human immunodeficiency virus 1, MT4, as in Test Example 1, Table 5, read-out: HIV Activity EC50
[5] = as in Test Example 2, Table 5, read-out: CXCR4 Activity % at 0.1 μM

T1 sequence (P61073 whole entry): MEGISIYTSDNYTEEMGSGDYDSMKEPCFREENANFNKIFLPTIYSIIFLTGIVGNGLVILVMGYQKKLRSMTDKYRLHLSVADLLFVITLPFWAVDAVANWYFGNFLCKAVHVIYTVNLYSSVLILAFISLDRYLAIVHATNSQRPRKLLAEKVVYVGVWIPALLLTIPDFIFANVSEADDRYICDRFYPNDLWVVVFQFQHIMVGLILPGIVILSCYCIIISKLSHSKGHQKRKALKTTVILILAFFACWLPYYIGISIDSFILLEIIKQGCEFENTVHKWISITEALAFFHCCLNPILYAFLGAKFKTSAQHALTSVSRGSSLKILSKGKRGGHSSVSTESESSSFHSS

| Compound | EC50 [1, 2] [nM] | inhibition at 0.1 µM (CXCR4; [3]) [%] | Dead mice/test mice (ICR mice) | EC50 [1, 4] [nM] | inhibition at 0.1 µM (CXCR4; [5]) [%] |
| --- | --- | --- | --- | --- | --- |
| CCCN(CCC)CCCCN(C)Cc1ccc(CN(Cc2ncc[nH]2)Cc2nccn2C)cc1 [Compound No. 98, N-(4-{[(1H-imidazol-2-ylmethyl)-(1-methyl-1H-imidazol-2-ylmethyl)-amino]-methyl}-benzyl)-N-methyl-N′,N′-dipropylbutane-1,4-diamine] | 3 | 100 | 0/5 |  |  |
| CCCN(CCC)Cc1ccc(NC(=O)c2ccc(CN(Cc3ncc[nH]3)Cc3nccn3C)cc2)cc1 [Compound No. 49, N-(4-dipropylaminomethylphenyl)-4-{[(1H-imidazol-2-ylmethyl)-(1-methyl-1H-imidazol-2-ylmethyl)-amino]-methyl}-benzamide] | 2 | 100 | 0/5 | 2 | 100 |
| CC(C)CN(CCCCNC(=O)c1ccc(CN(Cc2ncc[nH]2)Cc2ncc[nH]2)cc1)CC(C)C [Compound No. 2, 4-{[bis(1H-imidazol-2-ylmethyl)-amino]-methyl}-N-(4-diisobutylamino-butyl)-benzamide] | 3 | 100 | 0/5 |  |  |
| CCCN(CCC)CCCCNC(=O)c1ccc(CN(Cc2ncc[nH]2)Cc2ncc[nH]2)cc1 [Compound No. 1, 4-{[bis(1H-imidazol-2-ylmethyl)-amino]-methyl}-N-(4-dipropylamino-butyl)-benzamide] | 4 | 100 | 0/5 |  |  |
| CCCN(CCC)Cc1ccc(NC(=O)c2ccc(CN(Cc3ncc[nH]3)Cc3nc4ccccc4[nH]3)cc2)cc1 [Compound No. 61, N-(4-dipropylaminomethylphenyl)-4-{[(1H-imidazol-2-ylmethyl)-(1H-benzimidazol-2-ylmethyl)-amino]-methyl}-benzamide] | 2 | 100 | 0/5 | 2 | 100 |
| CCCN(CCC)CCCCNCc1ccc(CN(Cc2ccc(C)cn2)Cc2ncc[nH]2)cc1 [Compound No. 75, N-(4-{[(1H-imidazol-2-ylmethyl)-(5-methylpyridine-2-ylmethyl)-amino]-methyl}-benzyl)-N′,N′-dipropylbutane-1,4-diamine] | 2 | 100 | 0/5 |  |  |
| CCCN(CCC)CCCCNCc1ccc(CN(Cc2ncc[nH]2)Cc2ncc[nH]2)cc1 [Compound No. 25, N-(4-{[bis(1H-imidazol-2-ylmethyl)-amino]-methyl}-benzyl)-N′,N′-dipropylbutane-1,4-diamine] | 2 | 100 | 0/5 |  |  |
| CCCN(CCC)CCCCN(C)Cc1ccc(CN(Cc2ncc[nH]2)Cc2nnc[nH]2)cc1 [Compound No. 116, N-(4-{[(imidazol-2-ylmethyl)-([1,2,4]-triazol-3-ylmethyl)-amino]-methyl}-benzyl)-N-methyl-N′,N′-dipropylbutane-1,4-diamine] | 2 | 100 | 0/5 |  |  |
| O=C(NCCCCNCc1ccccc1C(F)(F)F)c1ccc(CN(Cc2ncc[nH]2)Cc2ncc[nH]2)cc1 [Compound No. 11, 4-{[bis(1H-imidazol-2-ylmethyl)-amino]-methyl}-N-[4-(2-trifluoromethyl)-benzylamino-butyl]-benzamide] | 23 | 95 | 0/5 |  |  |
| CCCN(CCC)Cc1ccc(NC(=O)c2ccc(CN(Cc3ncc[nH]3)Cc3ncc[nH]3)cc2)cc1 [Compound No. 19, 4-{[bis(1H-imidazol-2-ylmethyl)-amino]-methyl}-N-(4-dipropylaminomethylphenyl)-benzamide] | 2 | 100 | 0/5 |  |  |
| O=C(NCCCCNCc1ccccc1OC(F)(F)F)c1ccc(CN(Cc2ncc[nH]2)Cc2ncc[nH]2)cc1 [Compound No. 12, 4-{[bis(1H-imidazol-2-ylmethyl)-amino]-methyl}-N-[4-(2-trifluoromethoxy)-benzylamino-butyl]-benzamide] | 49 | 95 | 0/5 |  |  |
| NCCCCNC(=O)c1ccc(CN(Cc2ncc[nH]2)Cc2ncc[nH]2)cc1 [Compound No. 3, 4-{[bis(1H-imidazol-2-ylmethyl)-amino]-methyl}-N-(4-aminobutyl)-benzamide] | 3 | 100 | 0/5 |  |  |
| CN(CCCCNS(=O)(=O)c1ccc(CN(Cc2ncc[nH]2)Cc2nccn2C)cc1)C1CCCCC1 [Compound No. 109, N-[4-(cyclohexyl-methyl-amino)-butyl]-4-{[(1H-imidazol-2-ylmethyl)-(1-methyl-1H-imidazol-2-ylmethyl)-amino]-methyl}-benzenesulfonamide] | 2 | 100 | 0/5 |  |  |
